{"source": "patent EP0505640B2", "about": "“Improved therapeutic method” (ELI LILLY AND COMPANY, priority 1991, dated 1992)", "key": {"bovine FBP": {"biological_target": "bovine FBP (Bos taurus, UniProt P02702)", "sequence (P02702 20-234)": "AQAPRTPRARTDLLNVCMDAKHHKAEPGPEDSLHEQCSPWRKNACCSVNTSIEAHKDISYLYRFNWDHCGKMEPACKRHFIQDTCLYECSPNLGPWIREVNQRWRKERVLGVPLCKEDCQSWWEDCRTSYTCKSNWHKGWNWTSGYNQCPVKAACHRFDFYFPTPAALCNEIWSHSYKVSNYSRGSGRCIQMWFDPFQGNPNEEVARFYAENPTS", "test": "Folate binding constant, procedure of Dunn and Foster", "protocol": "As noted above, the drug products which can be employed in the present invention include other GAR-transformylase or TS inhibitors which are capable of binding to folate binding protein. Folic acid itself has a binding constant (ng/ml) of 1.8, and lometrexol has a binding constant of 9.7 to bovine FBP. Any GAR-transformylase or TS inhibitor that binds at less than about 500 ng/ml can be utilized in the method of this invention. The folate binding constant for drug products can be readily determined by the general procedure of Dunn and Foster, Clin. Chem., 19 (10), 1101-1105 (1973)."}, "[1]": {"system": "nasalpharyngeal carcinoma", "settings": "one subject with nasalpharyngeal carcinoma, folic acid 0.5 to 1.0 mg/day, after the 12 months of therapy"}, "[2]": {"system": "C3H strain of mammary adenocarcinoma", "test": "Antitumor activity against implanted C3H mammary adenocarcinoma in mice", "type": "in vivo", "protocol": "(§1) In one such test, mice are inoculated with the C3H strain of mammary adenocarcinoma by inserting a 2 mm by 2 mm section of tumor into the axillary region of the mice by trocar. In all experiments, lometrexol was administered intraperitoneally once a day for five consecutive days, starting on the day following tumor implantation. Ten animals were used at each dosage level. Antitumor activity was assessed on day ten by measuring the length and width of the tumor growth using vernier calipers, and the activity was expressed as a percent inhibition of tumor growth."}, "C3H Mice": {"system": "C3H Mice", "test": "Toxicity measured as death of tumor-bearing C3H mice", "type": "in vivo", "protocol": "as §1"}, "[3]": {"settings": "read-out: Binding Constant, folate binding protein"}}, "note": "Like-named read-outs stand apart in the source and are kept apart here.", "data": [{"smiles": "Nc1nc(O)c2c(n1)NCC(CCc1ccc(C(=O)NC(CCC(=O)O)C(=O)O)o1)C2", "note": "(stereo not shown)", "values": [{"measurement": "Kd", "setting": "bovine FBP; [3]", "result": 579, "unit": "nM"}]}, {"smiles": "Nc1nc(O)c2c(n1)NCC(CCc1ccc(C(=O)NC(CCC(=O)O)C(=O)O)s1)C2", "note": "(stereo not shown)", "values": [{"measurement": "Kd", "setting": "bovine FBP; [3]", "result": 54.5, "unit": "nM"}]}, {"smiles": "Nc1nc(O)c2c(n1)NCC(CCC1CCC(C(=O)NC(CCC(=O)O)C(=O)O)CC1)C2", "note": "(stereo not shown)", "values": [{"measurement": "Kd", "setting": "bovine FBP; [3]", "result": 57.8, "unit": "nM"}]}, {"smiles": "C#CCN(Cc1ccc2[nH]c(N)nc(=O)c2c1)c1ccc(C(=O)NC(CCC(=O)O)C(=O)O)cc1", "note": "(stereo not shown)", "values": [{"measurement": "Kd", "setting": "bovine FBP; [3]", "result": 25.1, "unit": "nM"}]}, {"smiles": "Cc1nc2ccc(CN(C)c3ccc(C(=O)NC(CCC(=O)O)C(=O)O)s3)cc2c(=O)[nH]1", "note": "(stereo not shown)", "values": [{"measurement": "Kd", "setting": "bovine FBP; [3]", "result": 534, "unit": "nM"}]}, {"smiles": "Nc1nc2ncc(CNc3ccc(C(=O)N[C@@H](CCC(=O)O)C(=O)O)cc3)nc2c(=O)[nH]1", "note": "[Folic acid]", "values": [{"measurement": "Kd", "setting": "bovine FBP; folate binding protein, read-out: Binding Constant (converted)", "result": 4.08, "unit": "nM"}]}, {"smiles": "Nc1nc2c(c(=O)[nH]1)CC(CCc1ccc(C(=O)N[C@@H](CCC(=O)O)C(=O)O)cc1)CN2", "note": "(stereo partly shown) [Lometrexol, 5,10-dideazatetrahydrofolic acid]", "values": [{"measurement": "clinical evidence of disease", "setting": "[1]", "result": "no clinical evidence of disease"}, {"measurement": "Antitumor Activity (% Inhibition)", "setting": "[2]; Lometrexol 0.0625 mg/kg i.p. once a day for five days, two weeks on folate-free diet, assessed day ten", "result": 0, "unit": "%"}, {"measurement": "Antitumor Activity (% Inhibition)", "setting": "[2]; Lometrexol 0.125 mg/kg i.p. once a day for five days, folate-free diet plus 0.0003% folate in drinking water, day ten", "result": 13, "unit": "%"}, {"measurement": "Antitumor Activity (% Inhibition)", "setting": "[2]; Lometrexol 0.125 mg/kg i.p. once a day for five days, two weeks on folate-free diet, assessed day ten", "result": 0, "unit": "%"}, {"measurement": "Antitumor Activity (% Inhibition)", "setting": "[2]; Lometrexol 0.25 mg/kg i.p. once a day for five days, folate-free diet plus 0.0003% folate in drinking water, day ten", "result": 26, "unit": "%"}, {"measurement": "Antitumor Activity (% Inhibition)", "setting": "[2]; Lometrexol 0.25 mg/kg i.p. once a day for five days, two weeks on folate-free diet, assessed day ten", "result": 21, "unit": "%"}, {"measurement": "Antitumor Activity (% Inhibition)", "setting": "[2]; Lometrexol 0.5 mg/kg i.p. once a day for five days, folate-free diet plus 0.0003% folate in drinking water, day ten", "result": 48, "unit": "%"}, {"measurement": "Antitumor Activity (% Inhibition)", "setting": "[2]; Lometrexol 0.5 mg/kg i.p. once a day for five days, two weeks on folate-free diet, assessed day ten", "result": 88, "unit": "%"}, {"measurement": "Antitumor Activity (% Inhibition)", "setting": "[2]; Lometrexol 1.0 mg/kg i.p. once a day for five days, folate-free diet plus 0.0003% folate in drinking water, day ten", "result": 97, "unit": "%"}, {"measurement": "Antitumor Activity (% Inhibition)", "setting": "[2]; Lometrexol 1.0 mg/kg i.p. once a day for five days, two weeks on folate-free diet, assessed day ten", "result": 100, "unit": "%"}, {"measurement": "Antitumor Activity (% Inhibition)", "setting": "[2]; Lometrexol 2.0 mg/kg i.p. once a day for five days, folate-free diet plus 0.0003% folate in drinking water, day ten", "result": 98, "unit": "%"}, {"measurement": "Antitumor Activity (% Inhibition)", "setting": "[2]; Lometrexol 4.0 mg/kg i.p. once a day for five days, folate-free diet plus 0.0003% folate in drinking water, day ten", "result": 99, "unit": "%"}, {"measurement": "Antitumor Activity (% Inhibition)", "setting": "[2]; Lometrexol 6.25 mg/kg i.p. once a day for five days, folate-free diet plus 0.003% folate in drinking water, day ten", "result": 91, "unit": "%"}, {"measurement": "Antitumor Activity (% Inhibition)", "setting": "[2]; Lometrexol 12.5 mg/kg i.p. once a day for five days, folate-free diet plus 0.003% folate in drinking water, day ten", "result": 89, "unit": "%"}, {"measurement": "Antitumor Activity (% Inhibition)", "setting": "[2]; Lometrexol 25 mg/kg i.p. once a day for five days, folate-free diet plus 0.003% folate in drinking water, day ten", "result": 97, "unit": "%"}, {"measurement": "Antitumor Activity (% Inhibition)", "setting": "[2]; Lometrexol 50 mg/kg i.p. once a day for five days, folate-free diet plus 0.003% folate in drinking water, day ten", "result": 96, "unit": "%"}, {"measurement": "Toxicity (Mice Dead/Total Mice)", "setting": "C3H Mice; Lometrexol 0.0625 mg/kg i.p. once a day for five days, two weeks on folate-free diet", "result": "0/10"}, {"measurement": "Toxicity (Mice Dead/Total Mice)", "setting": "C3H Mice; Lometrexol 0.125 mg/kg i.p. once a day for five days, folate-free diet plus 0.0003% folate in drinking water", "result": "0/10"}, {"measurement": "Toxicity (Mice Dead/Total Mice)", "setting": "C3H Mice; Lometrexol 0.125 mg/kg i.p. once a day for five days, two weeks on folate-free diet", "result": "0/10"}, {"measurement": "Toxicity (Mice Dead/Total Mice)", "setting": "C3H Mice; Lometrexol 0.25 mg/kg i.p. once a day for five days, folate-free diet plus 0.0003% folate in drinking water", "result": "0/10"}, {"measurement": "Toxicity (Mice Dead/Total Mice)", "setting": "C3H Mice; Lometrexol 0.25 mg/kg i.p. once a day for five days, two weeks on folate-free diet", "result": "0/10"}, {"measurement": "Toxicity (Mice Dead/Total Mice)", "setting": "C3H Mice; Lometrexol 0.5 mg/kg i.p. once a day for five days, folate-free diet plus 0.0003% folate in drinking water", "result": "0/10"}, {"measurement": "Toxicity (Mice Dead/Total Mice)", "setting": "C3H Mice; Lometrexol 0.5 mg/kg i.p. once a day for five days, two weeks on folate-free diet", "result": "0/10"}, {"measurement": "Toxicity (Mice Dead/Total Mice)", "setting": "C3H Mice; Lometrexol 1.0 mg/kg i.p. once a day for five days, folate-free diet plus 0.0003% folate in drinking water", "result": "0/10"}, {"measurement": "Toxicity (Mice Dead/Total Mice)", "setting": "C3H Mice; Lometrexol 1.0 mg/kg i.p. once a day for five days, two weeks on folate-free diet", "result": "8/10"}, {"measurement": "Toxicity (Mice Dead/Total Mice)", "setting": "C3H Mice; Lometrexol 1.0 mg/kg i.p. once a day for five days, two weeks on folate-free diet, listed as lometrexol", "result": "lethal to the majority of the mice"}, {"measurement": "Toxicity (Mice Dead/Total Mice)", "setting": "C3H Mice; Lometrexol 2.0 mg/kg i.p. once a day for five days, folate-free diet plus 0.0003% folate in drinking water", "result": "0/10"}, {"measurement": "Toxicity (Mice Dead/Total Mice)", "setting": "C3H Mice; Lometrexol 4.0 mg/kg i.p. once a day for five days, folate-free diet plus 0.0003% folate in drinking water", "result": "4/10"}, {"measurement": "Toxicity (Mice Dead/Total Mice)", "setting": "C3H Mice; Lometrexol 6.25 mg/kg i.p. once a day for five days, folate-free diet plus 0.003% folate in drinking water", "result": "0/10"}, {"measurement": "Toxicity (Mice Dead/Total Mice)", "setting": "C3H Mice; Lometrexol 12.5 mg/kg i.p. once a day for five days, folate-free diet plus 0.003% folate in drinking water", "result": "0/10"}, {"measurement": "Toxicity (Mice Dead/Total Mice)", "setting": "C3H Mice; Lometrexol 25 mg/kg i.p. once a day for five days, folate-free diet plus 0.003% folate in drinking water", "result": "0/10"}, {"measurement": "Toxicity (Mice Dead/Total Mice)", "setting": "C3H Mice; Lometrexol 50 mg/kg i.p. once a day for five days, folate-free diet plus 0.003% folate in drinking water", "result": "0/10"}, {"measurement": "Kd", "setting": "bovine FBP", "result": 21.9, "unit": "nM"}]}, {"smiles": "Nc1nc(O)c2c(n1)NCC(CCCc1ccc(C(=O)NC(CCC(=O)O)C(=O)O)cc1)C2", "note": "(stereo not shown) [n = 3 X = H]", "values": [{"measurement": "Kd", "setting": "bovine FBP", "result": 27.3, "unit": "nM"}]}]}
